For the experiment, the system named is Mycosphaerella graminicola; Anamorph: Septoria tritici; Bayer Code SEPTTR. As to the kind of experiment: Leaf blotch of wheat, foliar fungicide treatment, one day protectant (1DP) or three day curative (3DC). It counts as in vivo, Septoria tritici on wheat plants (variety Yuma). The following applies: Zymoseptoria tritici; for pest or weed control at 50 ppm / pest or weed control at 200 ppm: % disease control rating.

Setting [1] is: 24 h, one day protectant, 25 ppm, rating of percent disease control, read-out: SETTTR 1DP 25 ppm.
[2] abbreviates: 24 h, one day protectant, rating of percent disease control, read-out: SEPTTR 1DP 100 ppm.
Setting [3] is: 72 h, three day curative, 25 ppm, rating of percent disease control, read-out: SEPTTR 3DC 25 ppm.
The mark [4] stands for this setting: 72 h, three day curative, rating of percent disease control, read-out: SEPTTR 3DC 100 ppm.
The mark [5] stands for this setting: 24 h, one day protectant (1DP), 25 ppm (first 1DP column), percent control rating, read-out: SETTTR 1DP 25 ppm.
[6] abbreviates: 24 h, one day protectant (1DP), 25 ppm as printed (second 1DP column), percent control rating, read-out: SETTTR 1DP 25 ppm.
[7] abbreviates: 72 h, three day curative (3DC), 25 ppm, percent control rating, read-out: SEPTTR 3DC 25 ppm.
Setting [8] is: 72 h, three day curative (3DC), percent control rating, read-out: SEPTTR 3DC 100 ppm.
Where [9] appears, read: 24 h, one day protectant (1DP), 25 ppm, percent disease control rating, read-out: SETTTR 1DP 25 ppm.
The mark [10] stands for this setting: 24 h, one day protectant (1DP), percent disease control rating, read-out: SEPTTR 1DP 100 ppm.
Where [11] appears, read: 72 h, three day curative (3DC), 25 ppm, percent disease control rating, read-out: SEPTTR 3DC 25 ppm.
The mark [12] stands for this setting: 72 h, three day curative (3DC), percent disease control rating, read-out: SEPTTR 3DC 100 ppm.
Where [13] appears, read: 24 h, one day protectant (1DP), 25 ppm, rating of percent disease control, read-out: SETTTR 1DP 25 ppm.
[14] abbreviates: 24 h, one day protectant (1DP), rating of percent disease control, read-out: SEPTTR 1DP 100 ppm.
Where [15] appears, read: 72 h, three day curative (3DC), 25 ppm, rating of percent disease control, read-out: SEPTTR 3DC 25 ppm.
Where [16] appears, read: 72 h, three day curative (3DC), rating of percent disease control, read-out: SEPTTR 3DC 100 ppm.

Where two headings read alike, the source gives them in different places.

On to `COc1cccc(COc2ncc(F)c(NCOCc3ccccc3)n2)c1` [Compound 638], for which the pest or weed control at 25 ppm by setting is: under setting [1], 51 to 75%; under setting [3], 0 to 25%. For the same compound, the pest or weed control at 100 ppm is 76 to 100% under setting [2] and 51 to 75% under setting [4].
Turning to `C=CCOc1ncc(F)c(N/N=C(\C)c2ccc(F)cc2)n1` [Compound 1060], the pest or weed control at 25 ppm is, setting by setting: under setting [5], 0 to 25%; under setting [6], 0 to 25%; under setting [7], 0 to 25%. For the same compound, the pest or weed control at 100 ppm under setting [8] lay within 0 to 25%.
For `Nc1nc(OCc2ccc3c(c2)OCO3)ncc1F` [Compound 178], the pest or weed control at 25 ppm lay in the range of 76 to 100% under setting [9] and 76 to 100% under setting [11]. Further, the pest or weed control at 100 ppm runs as follows: under setting [10], 76 to 100%; under setting [12], 76 to 100%.
Consider `Cn1c(COc2ncc(F)c(N)n2)cc2sccc21` [Compound 76], for which the pest or weed control at 25 ppm under setting [9] lay within 26 to 50% and the pest or weed control at 25 ppm under setting [11] lay in the range of 26 to 50%. Further, the pest or weed control at 100 ppm is, setting by setting: under setting [10], 26 to 50%; under setting [12], 26 to 50%.
Regarding `CC(Oc1ncc(F)c(NCO)n1)c1ccc(F)cc1` (stereo not drawn) [Compound 88], the pest or weed control at 25 ppm under setting [9] is 26 to 50% and the pest or weed control at 25 ppm under setting [11] lay within 26 to 50%. In addition, the pest or weed control at 100 ppm is, setting by setting: under setting [10], 76 to 100%; under setting [12], 76 to 100%.
As to `Cc1cc(Oc2ncc(F)c(N)n2)cc(C)n1` [Compound 296], the pest or weed control at 25 ppm fell in the range of 0 to 25% under setting [13] and 0 to 25% under setting [15]. Besides, the pest or weed control at 100 ppm was 0 to 25% under setting [14] and 26 to 50% under setting [16].
Regarding `COc1ccc(COc2ncc(F)c(NSc3ccccc3[N+](=O)[O-])n2)cc1F` [Compound 200], the pest or weed control at 25 ppm runs as follows: under setting [13], 0 to 25%; under setting [15], 0 to 25%. Besides, the pest or weed control at 100 ppm runs as follows: under setting [14], 26 to 50%; under setting [16], 0 to 25%.
On to `O=C(NCc1ccccc1F)Nc1nc(O)ncc1F` [Compound 970], for which the pest or weed control at 25 ppm under setting [5] is 26 to 50%, the pest or weed control at 25 ppm under setting [6] is 51 to 75% and the pest or weed control at 25 ppm under setting [7] is 26 to 50%. Moreover, the pest or weed control at 100 ppm under setting [8] lay within 26 to 50%.
On to `Fc1cccc(COc2ncc(F)c(/N=C/N3CCOCC3)n2)c1` [Compound 684], for which the pest or weed control at 25 ppm runs as follows: under setting [1], 76 to 100%; under setting [3], 76 to 100%. The pest or weed control at 100 ppm lay within 76 to 100% under setting [2] and 76 to 100% under setting [4].
For `Nc1nc(OC(c2ccccc2)c2ccc(F)cc2)ncc1F` (stereo not drawn) [Compound 406], the pest or weed control at 25 ppm fell in the range of 76 to 100% under setting [13] and 76 to 100% under setting [15]. For the same compound, the pest or weed control at 100 ppm is, setting by setting: under setting [14], 76 to 100%; under setting [16], 76 to 100%.
Regarding `CCOCNc1nc(O)ncc1F` [Compound 1115], the pest or weed control at 25 ppm under setting [5] was in the range of 26 to 50%, the pest or weed control at 25 ppm under setting [6] fell in the range of 76 to 100% and the pest or weed control at 25 ppm under setting [7] was 26 to 50%. For the same compound, the pest or weed control at 100 ppm under setting [8] was 76 to 100%.
For the setting “24 h, one day protectant”, `Fc1cnc(OCc2cc(Cl)cc(Cl)c2)nc1NCc1ccc(Cl)cc1` [Compound 868] came in with a pest or weed control at 50 ppm of 51 to 75% and a pest or weed control at 200 ppm of 76 to 100%.
Turning to `CCCCOc1cc(COc2ncc(F)c(N)n2)ccc1OC` [Compound 650], the pest or weed control at 25 ppm fell in the range of 76 to 100% under setting [1] and 76 to 100% under setting [3]. Further, the pest or weed control at 100 ppm lay within 76 to 100% under setting [2] and 76 to 100% under setting [4].
`N#Cc1cccc(COc2ncc(F)c(NCO)n2)c1` [Compound 153]: the pest or weed control at 25 ppm reads like this: under setting [9], 76 to 100%; under setting [11], 76 to 100%. For the same compound, the pest or weed control at 100 ppm is, setting by setting: under setting [10], 76 to 100%; under setting [12], 76 to 100%.
`Fc1cnc(OCc2cc(Cl)cc(Cl)c2)nc1NC1CC1` [Compound 870] returned a pest or weed control at 200 ppm (24 h, one day protectant) of 76 to 100%.
With `Cc1ccc(COc2ncc(F)c(N(C)N)n2)cc1` [Compound 253], the pest or weed control at 25 ppm runs as follows: under setting [13], 26 to 50%; under setting [15], 51 to 75%. The pest or weed control at 100 ppm by setting is: under setting [14], 76 to 100%; under setting [16], 76 to 100%.
In the case of `COc1ncc(F)c(/N=N/c2ccccc2Cl)n1` [Compound 1110], the pest or weed control at 25 ppm by setting is: under setting [5], 0 to 25%; under setting [6], 0 to 25%; under setting [7], 0 to 25%. In addition, the pest or weed control at 100 ppm under setting [8] lay within 0 to 25%.
Take `COc1cccc(COc2ncc(F)c(/N=C/N3CCOCC3)n2)c1` [Compound 704]: the pest or weed control at 25 ppm runs as follows: under setting [1], 76 to 100%; under setting [3], 76 to 100%. The pest or weed control at 100 ppm under setting [2] lay within 76 to 100% and the pest or weed control at 100 ppm under setting [4] lay in the range of 76 to 100%.
In the case of `Fc1cnc(OCc2ccccc2)nc1/N=N/c1ccccc1` [Compound 991], the pest or weed control at 25 ppm under setting [5] was in the range of 0 to 25%, the pest or weed control at 25 ppm under setting [6] was in the range of 0 to 25% and the pest or weed control at 25 ppm under setting [7] was in the range of 0 to 25%. Further, under setting [8], the pest or weed control at 100 ppm was in the range of 0 to 25%.
Regarding `O=C(Nc1nc(OCc2cccc(F)c2)ncc1F)OCc1ccccc1` [Compound 478], the pest or weed control at 25 ppm was in the range of 51 to 75% under setting [13] and 76 to 100% under setting [15]. The pest or weed control at 100 ppm fell in the range of 76 to 100% under setting [14] and 76 to 100% under setting [16].
As for `C[C@@H](Oc1ncc(F)c(N)n1)c1ccc(Br)cc1` [Compound 70], the pest or weed control at 25 ppm reads like this: under setting [9], 26 to 50%; under setting [11], 26 to 50%. Moreover, the pest or weed control at 100 ppm was in the range of 76 to 100% under setting [10] and 76 to 100% under setting [12].
Regarding `Nc1nc(OCc2ccccn2)ncc1F` [Compound 891], under “24 h, one day protectant”, the pest or weed control at 50 ppm lay in the range of 76 to 100% and the pest or weed control at 200 ppm fell in the range of 76 to 100%.
For `COc1ccccc1S(=O)(=O)Nc1nc(O)ncc1F` [Compound 1102], the pest or weed control at 25 ppm is 0 to 25% under setting [5], 0 to 25% under setting [6] and 26 to 50% under setting [7]. Moreover, under setting [8], the pest or weed control at 100 ppm was 26 to 50%.
Take `C=CCOc1ncc(F)c(/N=N/c2cc(C)ccc2C)n1` [Compound 1109]: the pest or weed control at 25 ppm fell in the range of 0 to 25% under setting [5], 0 to 25% under setting [6] and 0 to 25% under setting [7]. For the same compound, the pest or weed control at 100 ppm under setting [8] is 0 to 25%.
On to `Cc1ccc(COc2ncc(F)c(NCCc3ccccc3)n2)cc1` [Compound 926], for which, under “24 h, one day protectant”, the pest or weed control at 50 ppm fell in the range of 76 to 100% and the pest or weed control at 200 ppm is 76 to 100%.
As for `Nc1nc(OCc2c(F)cc(Br)cc2F)ncc1F` [Compound 154], the pest or weed control at 25 ppm under setting [9] is 76 to 100% and the pest or weed control at 25 ppm under setting [11] was in the range of 76 to 100%. In addition, the pest or weed control at 100 ppm under setting [10] lay within 76 to 100% and the pest or weed control at 100 ppm under setting [12] is 76 to 100%.
Take `COc1ccccc1COc1ncc(F)c(NC(=S)Nc2ccccc2F)n1` [Compound 239]: the pest or weed control at 25 ppm reads like this: under setting [13], 76 to 100%; under setting [15], 51 to 75%. In addition, the pest or weed control at 100 ppm under setting [14] lay in the range of 76 to 100% and the pest or weed control at 100 ppm under setting [16] is 76 to 100%.
Take `Fc1cnc(OCc2ccccc2)nc1/N=N/c1ccccn1` [Compound 993]: the pest or weed control at 25 ppm by setting is: under setting [5], 0 to 25%; under setting [6], 26 to 50%; under setting [7], 0 to 25%. In addition, under setting [8], the pest or weed control at 100 ppm is 51 to 75%.
On to `CSc1ccc(COc2ncc(F)c(N)n2)cc1` [Compound 673], for which the pest or weed control at 25 ppm lay in the range of 76 to 100% under setting [1] and 76 to 100% under setting [3]. The pest or weed control at 100 ppm was 76 to 100% under setting [2] and 76 to 100% under setting [4].
As to `Cn1nc(COc2ncc(F)c(N)n2)c2ccccc21` [Compound 396], the pest or weed control at 25 ppm was in the range of 76 to 100% under setting [13] and 76 to 100% under setting [15]. For the same compound, the pest or weed control at 100 ppm under setting [14] was in the range of 76 to 100% and the pest or weed control at 100 ppm under setting [16] was 76 to 100%.
With `O=S(=O)(Nc1nc(O)ncc1F)c1ccccc1Cl` [Compound 1103], the pest or weed control at 25 ppm reads like this: under setting [5], 0 to 25%; under setting [6], 0 to 25%; under setting [7], 0 to 25%. Also, under setting [8], the pest or weed control at 100 ppm lay within 0 to 25%.
`COc1cc(F)c(COc2ncc(F)c(N)n2)cn1` [Compound 185]: the pest or weed control at 25 ppm runs as follows: under setting [13], 76 to 100%; under setting [15], 76 to 100%. The pest or weed control at 100 ppm runs as follows: under setting [14], 76 to 100%; under setting [16], 76 to 100%.
As to `COc1ccccc1COc1ncc(F)c(NC(=O)Nc2ccccc2F)n1` [Compound 329], the pest or weed control at 25 ppm was in the range of 0 to 25% under setting [13] and 0 to 25% under setting [15]. For the same compound, the pest or weed control at 100 ppm by setting is: under setting [14], 0 to 25%; under setting [16], 0 to 25%.

For the origin of these results see US9204653B2, “5-fluoro pyrimidine derivatives” (DOW AGROSCIENCES LLC, priority 2008, dated 2015).
